Laboratory results published in US20190133997A1, “ARTEMISININ ANALOG, AND USE, METHOD, AND COMPOSITION FOR PROMOTING LIPID CATABOLISM AND IMPROVING SUGAR METABOLISM” (FUDAN UNIVERSITY, priority 2016, published 2019).

Columns and labels:
Format in all cases: in vivo, Male C57BL/6J mice
[1] = system: high fat-fed mice; assay: Intraperitoneal artemether, weight gain induced by high-fat diet; conditions: intraperitoneal 20 mg/kg twice a week, eight weeks
Procedure: The mice were breeded in the SPF animal laboratory of the Laboratory Animal Center of Fudan University at a room temperature of 21° C.-23° C. with a 12-hour light/dark cycle. […] When the mice were grown to 8-week old, they were randomly divided into a control group and an administration group, with 8 mice in each group. While the mice were fed with a high-fat diet, artemether was injected intraperitoneally. Artemether for intraperitoneal injection was stored at 4° C. in coconut oil at a storage concentration of 6 mg/ml (20 mMol/L), and protected from light. Mice in administration group were injected with artemether at a dose of 20 mg/kg weight. Administration was twice a week for eight weeks, and the weight of the mice was recorded weekly.

[2] = system: high fat-fed mice; assay: Intraperitoneal artemether, adipose tissue in high fat-fed mice; conditions: high-fat diet, intraperitoneal 20 mg/kg twice a week, eight weeks
Procedure: The mice were breeded in the SPF animal laboratory of the Laboratory Animal Center of Fudan University at a room temperature of 21° C.-23° C. with a 12-hour light/dark cycle. […] When the mice were grown to 8-week old, they were randomly divided into a control group and an administration group, with 8 mice in each group. While the mice were fed with a high-fat diet, artemether was injected intraperitoneally. Artemether for intraperitoneal injection was stored at 4° C. in coconut oil at a storage concentration of 6 mg/ml (20 mMol/L), and protected from light. Mice in administration group were injected with artemether at a dose of 20 mg/kg weight. Administration was twice a week for eight weeks. The mice were sacrificed by cervical dislocation and were dissected, and inguinal fat (Inguinal, subcutaneous fat), epididymal fat (Gonadal, visceral fat) and brown fat in the interscapular region (BAT, classic brown fat) were removed, weighed and fixed. The histological analysis of adipose tissue was commissioned by Shanghai Saige Biotech Co., Ltd., which included the steps of fixing, paraffin embedding, sectioning and HE staining.

[3] = system: high fat-fed mice; assay: Subcutaneous artemether, cold exposure and UCP1 immunohistochemistry of subcutaneous fat in high fat-fed mice; conditions: high-fat diet, subcutaneous injection, eight weeks
Procedure: (§1) The mice were breeded in the SPF animal laboratory of the Laboratory Animal Center of Fudan University at a room temperature of 21° C.-23° C. with a 12-hour light/dark cycle. […] When the mice were grown to 8-week old, they were randomly divided into a control group and an administration group, with 8 mice in each group. While the mice were fed with a high-fat diet, artemether was injected subcutaneously. Artemether was diluted in PBS at a concentration of […], and injected into bilateral inguinal region, with 200 μl being injected into each side. Mice in control group were injected with the same volume of PBS. Administration was continued for eight weeks. Mice were fasted and housed in a breeding box at 4° C. The rectal temperature was measured every 2 hours. The mice were sacrificed by cervical dislocation after 6 hours, and the inguinal fat was removed for histological analysis. The histological analysis including tissue fixation, paraffin embedding, sectioning and immunohistochemistry experiment of UCP1 was commissioned by Shanghai Saige Biotech Co., Ltd.

[4] = system: high fat-fed mice; assay: Intraperitoneal artemether, cold exposure and UCP1 immunohistochemistry of subcutaneous fat in high fat-fed mice; conditions: high-fat diet, intraperitoneal 20 mg/kg twice a week, eight weeks
Procedure: The mice were breeded in the SPF animal laboratory of the Laboratory Animal Center of Fudan University at a room temperature of 21° C.-23° C. with a 12-hour light/dark cycle. […] When the mice were grown to 8-week old, they were randomly divided into a control group and an administration group, with 8 mice in each group. While the mice were fed with a high-fat diet, artemether was injected intraperitoneally. Artemether for intraperitoneal injection was stored at 4° C. in coconut oil at a storage concentration of 6 mg/ml (20 mMol/L), and protected from light. Mice in administration group were injected with artemether at a dose of 20 mg/kg weight. Administration was twice a week for eight weeks. Mice were fasted and housed in a breeding box at 4° C. The rectal temperature was measured every 2 hours. The mice were sacrificed by cervical dislocation after 6 hours, and the inguinal fat was removed for histological analysis. The histological analysis including tissue fixation, paraffin embedding, sectioning and immunohistochemistry experiment of UCP1 was commissioned by Shanghai Saige Biotech Co., Ltd.

[5] = system: high fat-fed mice; assay: Subcutaneous artemether, weight gain induced by high-fat diet; conditions: eight weeks
Procedure: The mice were breeded in the SPF animal laboratory of the Laboratory Animal Center of Fudan University at a room temperature of 21° C.-23° C. with a 12-hour light/dark cycle. […] When the mice were grown to 8-week old, they were randomly divided into a control group and an administration group, with 8 mice in each group. While the mice were fed with a high-fat diet, artemether was injected subcutaneously. Artemether was diluted in PBS at a concentration of […], and injected into bilateral inguinal region, with 200 μl being injected into each side. Mice in control group were injected with the same volume of PBS. Administration was continued for eight weeks and the weight of mice was recorded weekly.

[6] = system: high fat-fed mice; assay: Subcutaneous artemether, fatty liver induced by high-fat diet (HE staining); conditions: subcutaneous injection, eight weeks, control: obvious lipid accumulation
Procedure: as §1, with “weeks.” for “weeks. Mice were fasted and housed in a breeding box at 4° C. The rectal temperature was measured every 2 hours.”, “dislocation,” for “dislocation after 6 hours,”, “liver tissues of mice were removed.” for “the inguinal fat was removed for histological analysis.”, “HE staining” for “immunohistochemistry experiment of UCP1”

**Q.** With `CO[C@H]1O[C@@H]2O[C@@]3(C)CC[C@H]4[C@H](C)CC[C@@H]([C@H]1C)[C@@]24OO3` [artemether] as the compound, how does the “weight gain of mice” value [1] read?
**A.** significantly slower than that of mice in control group

**Q.** And the weight of mice ([1]; statistically different after three weeks)?
**A.** significantly lower than that of mice in control group

**Q.** What about the “adipocyte size (sectioning and HE staining)” value [2] of the same compound?
**A.** significantly smaller than that of mice in control group

**Q.** And the “volume of adipose tissue” value [2]?
**A.** significantly smaller than that of mice in control group

**Q.** And the “weight of adipose tissue” value [2]?
**A.** significantly smaller than that of mice in control group

**Q.** What about the “body temperature in an environment of 4° C.” value [3] of the same compound?
**A.** significantly higher than that of mice in control group

**Q.** And the “UCP1 expression in subcutaneous fat (immunohistochemistry)” value ([3]; after 6 hours at 4° C.)?
**A.** exhibited significant UCP1 expression

**Q.** What about the “body temperature in an environment of 4° C.” value [4] of the same compound?
**A.** significantly higher than that of mice in control group

**Q.** What about the “UCP1 expression in subcutaneous fat (immunohistochemistry)” value ([4]; after 6 hours at 4° C.) of the same compound?
**A.** exhibited significant UCP1 expression

**Q.** And the weight of mice ([5]; subcutaneous injection 15 Mol/L in PBS, 200 μl each inguinal side, statistically different after six weeks)?
**A.** significantly lower than that of mice in control group

**Q.** And the “weight gain of mice” value ([5]; subcutaneous injection)?
**A.** significantly slower than that of mice in control group

**Q.** What about the “lipid in the liver (fatty liver)” value [6] of the same compound?
**A.** only a small amount of lipid
